Consider 31 molecules from ChEMBL document CHEMBL1141928, “Non-peptidic alpha(v)beta3 antagonists containing indol-1-yl propionic acids” (Bioorg Med Chem Lett, 2005).

The target of the first data set is Integrin alpha-V/beta-3 (Homo sapiens, UniProt P05106+P06756). As to the kind of experiment: Inhibitory concentration against alphaV-beta3 integrin. The data set is classed as protein-complex assay.
Integrin alpha-V/beta-3, sequence (P05106 27-788 limits assumed): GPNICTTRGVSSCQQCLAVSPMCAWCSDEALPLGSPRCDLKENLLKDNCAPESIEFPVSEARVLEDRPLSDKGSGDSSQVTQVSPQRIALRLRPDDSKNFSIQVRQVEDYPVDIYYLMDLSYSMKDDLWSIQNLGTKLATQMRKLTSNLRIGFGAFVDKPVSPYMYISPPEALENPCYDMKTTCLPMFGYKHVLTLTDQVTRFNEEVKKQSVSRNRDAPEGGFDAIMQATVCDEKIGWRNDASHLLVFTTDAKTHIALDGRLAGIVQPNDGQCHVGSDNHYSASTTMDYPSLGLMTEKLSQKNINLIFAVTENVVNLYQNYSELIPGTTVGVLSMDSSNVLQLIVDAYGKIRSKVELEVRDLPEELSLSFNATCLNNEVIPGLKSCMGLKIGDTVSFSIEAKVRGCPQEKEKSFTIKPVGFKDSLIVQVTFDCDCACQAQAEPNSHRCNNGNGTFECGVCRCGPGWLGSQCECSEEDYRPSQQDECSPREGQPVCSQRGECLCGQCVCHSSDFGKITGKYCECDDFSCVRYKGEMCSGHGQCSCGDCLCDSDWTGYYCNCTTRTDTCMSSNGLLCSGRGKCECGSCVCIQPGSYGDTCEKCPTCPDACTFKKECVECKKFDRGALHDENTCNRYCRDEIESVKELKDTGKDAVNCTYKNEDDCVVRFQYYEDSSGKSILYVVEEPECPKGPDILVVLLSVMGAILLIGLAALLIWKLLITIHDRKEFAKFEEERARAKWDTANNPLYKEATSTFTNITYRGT
Integrin alpha-V/beta-3, sequence (P06756 31-889 limits assumed): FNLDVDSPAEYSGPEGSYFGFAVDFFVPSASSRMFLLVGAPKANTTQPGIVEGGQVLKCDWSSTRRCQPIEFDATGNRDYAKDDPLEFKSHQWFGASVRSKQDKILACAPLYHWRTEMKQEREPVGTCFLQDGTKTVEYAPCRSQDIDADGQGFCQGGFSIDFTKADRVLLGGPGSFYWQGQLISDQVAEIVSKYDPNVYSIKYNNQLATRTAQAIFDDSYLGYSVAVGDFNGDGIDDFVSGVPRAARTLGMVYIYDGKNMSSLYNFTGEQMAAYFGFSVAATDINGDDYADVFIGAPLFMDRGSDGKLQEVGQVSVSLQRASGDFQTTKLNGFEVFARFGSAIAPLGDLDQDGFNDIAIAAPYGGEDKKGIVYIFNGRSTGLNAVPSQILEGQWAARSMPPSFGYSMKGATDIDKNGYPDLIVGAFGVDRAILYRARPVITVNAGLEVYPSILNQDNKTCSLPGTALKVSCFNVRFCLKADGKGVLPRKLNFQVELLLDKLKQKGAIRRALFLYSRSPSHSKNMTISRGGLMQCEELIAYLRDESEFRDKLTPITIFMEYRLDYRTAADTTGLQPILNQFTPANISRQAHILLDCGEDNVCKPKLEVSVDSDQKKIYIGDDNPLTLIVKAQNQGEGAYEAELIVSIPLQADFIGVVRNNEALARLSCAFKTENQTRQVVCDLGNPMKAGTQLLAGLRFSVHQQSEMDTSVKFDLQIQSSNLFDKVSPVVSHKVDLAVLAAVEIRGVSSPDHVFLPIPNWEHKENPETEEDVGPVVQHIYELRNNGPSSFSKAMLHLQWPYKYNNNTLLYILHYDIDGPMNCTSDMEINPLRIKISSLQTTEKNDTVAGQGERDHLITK
Integrin alpha-V/beta-3, sequence (P06756 891-1048 limits assumed): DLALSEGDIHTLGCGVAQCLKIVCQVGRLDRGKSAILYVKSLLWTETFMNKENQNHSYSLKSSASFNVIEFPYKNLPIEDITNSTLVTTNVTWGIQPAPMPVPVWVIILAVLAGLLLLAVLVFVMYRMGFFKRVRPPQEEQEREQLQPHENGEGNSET
Conditions: not given
Broadly, the IC50 is the concentration needed to halve the response being measured. `COc1cccc(C(CC(=O)O)n2ccc3cc(OCCc4ccc5c(n4)NCCC5)ccc32)c1` (centres undefined): the IC50 worked out at 0.8 nM. That is a sub-nanomolar value.

`COc1ccc(C(CC(=O)O)n2ccc3cc(OCCc4ccc5c(n4)NCCC5)ccc32)cc1` (centres undefined): it took 0.7 nM to reach half-maximal inhibition (IC50).

The molecule `O=C(O)CC(c1ccccc1Cl)n1ccc2cc(OCCc3ccc4c(n3)NCCC4)ccc21` (centres undefined) displayed an IC50 of 55 nM.

Take `N#Cc1cncc(C(CC(=O)O)n2ccc3cc(OCCc4ccc5c(n4)NCCC5)ccc32)c1` (centres undefined): half-maximal inhibition (IC50) was put at 0.26 nM.

As for `O=C(O)CC(c1cccnc1)n1ccc2cc(OCCc3ccc4c(n3)NCCC4)ccc21` (centres undefined), 0.25 nM corresponded to half-maximal inhibition (IC50).

`O=C(O)CC(c1ccc2c(c1)OCO2)n1ccc2cc(OCCc3ccc4c(n3)NCCC4)ccc21` (centres undefined) showed an IC50 of 0.38 nM.

`O=C(O)C(Cc1ccccc1)Cn1ccc2cc(OCCCNc3ccccn3)ccc21` (centres undefined) displayed a half-maximal inhibitory concentration (IC50) of 1900 nM.

With `CCCC(CC(=O)O)n1ccc2cc(CCCc3ccc4c(n3)NCCC4)ccc21` (centres undefined), the IC50 is 23 nM.

Regarding `O=C(O)CC(c1cccc(Cl)c1)n1ccc2cc(OCCc3ccc4c(n3)NCCC4)ccc21` (centres undefined), inhibition was half-maximal at 0.5 nM (IC50). Compared with the last molecule, the IC50 is about 46-fold lower.

The molecule `O=C(O)CC(c1ccccc1)n1ccc2cc(OCCONC3=NCCN3)ccc21` (centres undefined) had an IC50 of 200 nM.

For the molecule `O=C(O)c1ccccc1-n1ccc2cc(OCCCNc3ccccn3)ccc21`, the IC50 is > 20000 nM.

`O=C(O)CC(c1ccc2c(c1)OCO2)n1ccc2cc(OCCc3ccc4c(n3)NCCO4)ccc21` (centres undefined) came in with an IC50 of 8 nM.

`CCCC(CC(=O)O)n1ccc2cc(NC(=O)Cc3ccc4c(n3)NCCC4)ccc21` (centres undefined) gave an IC50 of 78 nM.

As for `O=C(O)CC(c1ccccn1)n1ccc2cc(OCCc3ccc4c(n3)NCCC4)ccc21` (centres undefined), the concentration for half-maximal inhibition (IC50) is 1.2 nM.

Molecule `O=C(O)CC(c1ccc(F)cc1)n1ccc2cc(OCCc3ccc4c(n3)NCCC4)ccc21` (centres undefined) yielded an IC50 of 0.7 nM.

Take `COc1ccccc1C(CC(=O)O)n1ccc2cc(OCCc3ccc4c(n3)NCCC4)ccc21` (centres undefined): the IC50 was determined as 1.1 nM.

With `O=C(O)c1ccc(-n2ccc3cc(OCCCNc4ccccn4)ccc32)cc1`, the IC50 is > 20000 nM.

Regarding `O=C(O)CC(c1cccc2ccccc12)n1ccc2cc(OCCc3ccc4c(n3)NCCC4)ccc21` (centres undefined), 37 nM corresponded to half-maximal inhibition (IC50).

In turn, `O=C(O)CC(c1cnc2ccccc2c1)n1ccc2cc(OCCc3ccc4c(n3)NCCC4)ccc21` (centres undefined) displayed an IC50 of 0.38 nM.

The molecule `CNc1cccc(CCOc2ccc3c(ccn3CCC(=O)O)c2)n1` returned an IC50 of 36 nM.

`O=C(O)CC(c1cccnc1)n1ccc2cc(OCC(F)(F)c3ccc4c(n3)NCCC4)ccc21` (centres undefined): the IC50 worked out at 130 nM.

Regarding `CS(=O)(=O)c1cncc(C(CC(=O)O)n2ccc3cc(OCCc4ccc5c(n4)NCCC5)ccc32)c1` (centres undefined), the IC50 was found to be 0.46 nM.

For `COc1cncc(C(CC(=O)O)n2ccc3cc(OCCc4ccc5c(n4)NCCC5)ccc32)c1` (centres undefined), the IC50 is 0.25 nM. Against the preceding molecule, the IC50 is about 1.8-fold lower.

With `CS(=O)(=O)c1ccc(C(CC(=O)O)n2ccc3cc(OCCc4ccc5c(n4)NCCC5)ccc32)cn1` (centres undefined), the IC50 came to 0.3 nM.

Consider `CCCC(CC(=O)O)n1ccc2cc(OCCc3ccc4c(n3)NCCC4)ccc21` (centres undefined), for which 5 nM corresponded to half-maximal inhibition (IC50).

Molecule `O=C(O)CC(c1ccc(-c2ccccc2)cc1)n1ccc2cc(OCCc3ccc4c(n3)NCCC4)ccc21` (centres undefined) had an IC50 of 40 nM. This IC50 is about 8-fold higher than that of the molecule before.

With `CC(Cn1ccc2cc(OCCCNc3ccccn3)ccc21)C(=O)O` (centres undefined), half-maximal inhibition (IC50) required 460 nM.

The molecule `O=C(O)CC(c1ccncc1)n1ccc2cc(OCCc3ccc4c(n3)NCCC4)ccc21` (centres undefined) had an IC50 of 0.9 nM.

Turning to `O=C(O)CC(c1ccccc1)n1ccc2cc(OCCc3ccc4c(n3)NCCC4)ccc21` (centres undefined), half-maximal inhibition (IC50) was put at 1 nM.

Take `O=C(O)CC(c1ccc2ccccc2c1)n1ccc2cc(OCCc3ccc4c(n3)NCCC4)ccc21` (centres undefined): the IC50 worked out at 37 nM.

In turn, `CCCC(Cn1ccc2cc(OCCCNc3ccccn3)ccc21)C(=O)O` (centres undefined) returned an IC50 of 2000 nM.

Test system in another data set: not listed separately
As to the kind of experiment: Half life in mice after intravenous dosage. It is filed as ADME, organism-based. To be noted: mouse, in vivo.
As a reminder, the half-life is how long it takes for the measured level to halve. Lower therefore signals fast loss. `O=C(O)CC(c1ccc2c(c1)OCO2)n1ccc2cc(OCCc3ccc4c(n3)NCCC4)ccc21` (centres undefined) had a half-life of 1.5 h.

Test system in a further data set: not listed separately
The experiment in a line: Bioavailability in mice after […] dosage. It is filed as ADME, organism-based. To be noted: mouse, in vivo.
One may read the bioavailability as dose-corrected exposure relative to a reference, in per cent. High values mean much systemic uptake, low ones little systemic uptake. The molecule `O=C(O)CC(c1ccc2c(c1)OCO2)n1ccc2cc(OCCc3ccc4c(n3)NCCC4)ccc21` (centres undefined) came in with a bioavailability of 73%.

Test system in the next data set: not listed separately
The experiment in a line: Clearance in mice after intravenous dosage. The data set is classed as ADME, organism-based. As to conditions: mouse, in vivo.
The clearance is the rate of elimination divided by the concentration. A lower clearance goes with a low capacity for elimination. Turning to `O=C(O)CC(c1ccc2c(c1)OCO2)n1ccc2cc(OCCc3ccc4c(n3)NCCC4)ccc21` (centres undefined), the clearance amounted to 13 mL/min/kg.
